Measurements published in US20230147257A1 (DONG-A ST CO., LTD., priority 2020, published 2023).
Where two headings read alike, the source gives them in different places.

Biological target: T1, AhR (Homo sapiens, UniProt P35869)
T1 construct: host or cells: HepG2
T1 sequence (P35869 11-848): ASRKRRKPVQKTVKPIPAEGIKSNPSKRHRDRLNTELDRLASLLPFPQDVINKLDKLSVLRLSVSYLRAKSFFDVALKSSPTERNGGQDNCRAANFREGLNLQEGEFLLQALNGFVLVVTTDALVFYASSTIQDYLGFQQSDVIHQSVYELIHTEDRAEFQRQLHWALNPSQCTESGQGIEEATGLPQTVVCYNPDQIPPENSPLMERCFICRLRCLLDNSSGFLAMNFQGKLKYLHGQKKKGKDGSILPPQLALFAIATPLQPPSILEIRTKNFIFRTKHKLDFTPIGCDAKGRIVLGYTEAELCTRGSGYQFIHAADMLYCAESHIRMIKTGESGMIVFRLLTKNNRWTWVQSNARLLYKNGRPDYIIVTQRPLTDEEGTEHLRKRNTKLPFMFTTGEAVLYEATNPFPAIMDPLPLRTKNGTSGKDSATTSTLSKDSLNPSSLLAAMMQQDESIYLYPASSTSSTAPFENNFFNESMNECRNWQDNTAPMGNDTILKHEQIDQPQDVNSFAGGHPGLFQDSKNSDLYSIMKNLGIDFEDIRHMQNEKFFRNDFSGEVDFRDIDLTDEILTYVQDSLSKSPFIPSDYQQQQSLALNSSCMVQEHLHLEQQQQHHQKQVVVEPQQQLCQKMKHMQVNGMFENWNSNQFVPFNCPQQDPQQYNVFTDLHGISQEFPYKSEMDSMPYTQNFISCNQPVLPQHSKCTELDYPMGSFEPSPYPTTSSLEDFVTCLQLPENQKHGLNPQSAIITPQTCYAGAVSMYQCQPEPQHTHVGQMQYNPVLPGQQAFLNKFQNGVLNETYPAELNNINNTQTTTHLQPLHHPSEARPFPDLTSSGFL
Assay: In vitro assay 1: XRE-luciferase reporter assay, antagonism in human cell line (HepG2)
Type: cell-based
Settings: HepG2 XRE-luciferase, 6 hours, read-out: Assay 1: AhR-Luc Human Antagonism (IC50)
Source text: In Vitro XRE-Luciferase Reporter Assay (In Vitro Assay 1, 2, 3)
AhR activation leads the induction of target gene expression such as CYP1A1 and CYP1B1 by AhR binding to AhR-responsive DNA elements also known as xenobiotics responsive elements (XRE). The assay for measuring AhR activity herein is the luciferase assay using cell lines transfected with luciferase reporter plasmid containing XREs at the upstream of the reporter gene. Cells transfected with XRE-luciferase reporter (XRE-Luc) plasmid drive luciferase activity reflecting activation and inhibition of AhR in the cells. In addition to transfection with XRE-reporter vector, cells were co-transfected with Nano-luciferase reporter gene construct (Nano-Luc) containing constitutively active promoter as internal control. Kynurenine (an endogenous AhR agonist) was used to stimulate cells to test antagonistic properties of the compounds. The half-maximal inhibitory concentration (IC50) or half-maximal effective concentration (EC50) value was calculated using nonlinear regression (four parameters) with Prism8.0 software (GraphPad).
In Vitro Assay 1: Antagonism in Human Cell Line
HepG2 (human hepatoma cell line) cell line with a XRE-luciferase reporter either transiently or stably (Invivogen) were plated in complete medium and incubated at 37° C. in a CO2 incubator. After 24 hours, cells were treated with kynurenine (50* or 200 μM) alone (negative control) or with test compounds for 6 hours. Luciferase activity was measured with a commercial kit such as the Promega Luciferase kit or other reagents for measuring luciferase activity. Relative luciferase activity (Firefly/Nano-Luc) was used to calculate IC50 values. The relative luciferase activity was further normalized with kynurenine alone group as the maximum control and the vehicle group as the minimum control. (IC50 values are grouped as A, B, C and D, whereby A: IC50<0.01 μM; B: 0.01<IC50<0.1 μM; C: 0.1<IC50<1.0 μM; D: IC50>1.0 μM)

[1] = cells treated with kynurenine 200 μM (no *)
[2] = cells treated with kynurenine 50 μM (*)

SMILES | IC50 [1] [nM] | IC50 [2] [nM]
CN1CCN(c2ccc(-c3cc4c(=O)n(CC(O)CO)cnc4c(-c4cccnc4)n3)cc2)CC1 (stereo not shown) [Example 68, 3-(2,3-dihydroxypropyl)-6-(4-(4-methylpiperazin-1-yl)phenyl)-8-(pyridin-3-yl)pyrido[3,4-d]pyrimidin-4(3H)-one] | > 1000 | –
O=c1c2cc(-c3ccc(C(F)(F)F)cc3)nc(-c3cccnc3)c2ncn1[C@@H]1CC[C@H](O)C1 [Example 29, 3-((1R,3S)-3-hydroxycyclopentyl)-8-(pyridin-3-yl)-6-(4-(trifluoromethyl)phenyl)pyrido[3,4-d]pyrimidin-4(3H)-one] | < 10 | –
O=c1c2cc(-c3ccc(C(F)(F)F)cc3)nc(-c3cccnc3)c2ncn1[C@H]1CCCC[C@H]1O [Example 15, 3-((1S,2R)-2-hydroxycyclohexyl)-8-(pyridin-3-yl)-6-(4-(trifluoromethyl)phenyl)pyrido[3,4-d]pyrimidin-4(3H)-one] | > 1000 | –
CC(CN)n1cnc2c(-c3cccnc3)nc(-c3ccc(Cl)cc3)cc2c1=O (stereo not shown) [Example 87, 3-(1-aminopropan-2-yl)-6-(4-chlorophenyl)-8-(pyridin-3-yl)pyrido[3,4-d]pyrimidin-4(3H)-one] | < 10 | –
CC(=O)NCC(C)n1cnc2c(-c3cccnc3)nc(-c3ccc(C(F)(F)F)cc3)cc2c1=O (stereo not shown) [Example 86, N-(2-(4-oxo-8-(pyridin-3-yl)-6-(4-(trifluoromethyl)phenyl)pyrido[3,4-d]pyrimidin-3(4H)-yl)propyl)acetamide] | 10 to 100 | –
CS(=O)(=O)CCn1cnc2c(-c3cccnc3)nc(-c3ccc(N4CCOCC4)cc3)cc2c1=O [Example 79, 3-(2-(methylsulfonyl)ethyl)-6-(4-morpholinophenyl)-8-(pyridin-3-yl)pyrido[3,4-d]pyrimidin-4(3H)-one] | < 10 | –
O=c1c2cc(-c3ccc(Cl)cc3)nc(-c3cccnc3)c2ncn1C1CCC(O)CC1 (stereo not shown) [Example 58, 6-(4-chlorophenyl)-3-((1s,4s)-4-hydroxycyclohexyl)-8-(pyridin-3-yl)pyrido[3,4-d]pyrimidin-4(3H)-one] | < 10 | –
Cn1cc(-c2nc(-c3ccc(Cl)cc3)cc3c(=O)n(C4CCCC(O)C4)cnc23)cn1 (stereo not shown) [Example 64, 6-(4-chlorophenyl)-3-(3-hydroxycyclohexyl)-8-(1-methyl-1H-pyrazol-4-yl)pyrido[3,4-d]pyrimidin-4(3H)-one] | 10 to 100 | –
Cn1cc(-c2nc(-c3ccc(C(F)(F)F)cc3)cc3c(=O)n(CC(O)C(F)(F)F)cnc23)cn1 (stereo not shown) [Example 22, 8-(1-methyl-1H-pyrazol-4-yl)-3-(3,3,3-trifluoro-2-hydroxypropyl)-6-(4-(trifluoromethyl)phenyl)pyrido[3,4-d]pyrimidin-4(3H)-one] | < 10 | –
O=c1c2cc(-c3ccc(Cl)cc3)nc(-c3cccnc3)c2ncn1[C@@H]1CC[C@H](O)C1 [Example 28, 6-(4-chlorophenyl)-3-((1R,3S)-3-hydroxycyclopentyl)-8-(pyridin-3-yl)pyrido[3,4-d]pyrimidin-4(3H)-one] | < 10 | –

Second part, the compound after the results:

IC50 [1] [nM] | IC50 [2] [nM] | SMILES
< 10 | – | O=c1c2cc(-c3ccc(Cl)cc3)nc(-c3cccnc3)c2ncn1[C@@H]1CCCC[C@@H]1O [Example 19]
< 10 | – | O=c1c2cc(-c3ccc(C(F)(F)F)cc3)nc(-c3cccnc3)c2ncn1[C@H]1CC[C@@H](O)C1 [Example 33, 3-((1S,3R)-3-hydroxycyclopentyl)-8-(pyridin-3-yl)-6-(4-(trifluoromethyl)phenyl)pyrido[3,4-d]pyrimidin-4(3H)-one]
< 10 | – | O=c1c2cc(-c3ccc(Cl)cc3)nc(-c3cccnc3)c2ncn1CC(O)C(F)(F)F (stereo not shown) [Example 24, 6-(4-chlorophenyl)-8-(pyridin-3-yl)-3-(3,3,3-trifluoro-2-hydroxypropyl)pyrido[3,4-d]pyrimidin-4(3H)-one]
< 10 | – | O=c1c2cc(-c3ccc(C(F)(F)F)cc3)nc(-c3cccnc3)c2ncn1C(CO)CO [Example 69, 3-(1,3-dihydroxypropan-2-yl)-8-(pyridin-3-yl)-6-(4-(trifluoromethyl)phenyl)pyrido[3,4-d]pyrimidin-4(3H)-one]
< 10 | – | O=c1c2cc(-c3ccc(N4CCOCC4)cc3)nc(-c3cccnc3)c2ncn1C1CCS(=O)(=O)CC1 [Example 78, 3-(1,1-dioxidotetrahydro-2H-thiopyran-4-yl)-6-(4-morpholinophenyl)-8-(pyridin-3-yl)pyrido[3,4-d]pyrimidin-4(3H)-one]
< 10 | – | CC(C)(O)Cn1cnc2c(-c3cccnc3)nc(-c3ccc(C(F)(F)F)nc3)cc2c1=O [Example 40, 3-(2-hydroxy-2-methylpropyl)-8-(pyridin-3-yl)-6-(6-(trifluoromethyl)pyridin-3-yl)pyrido[3,4-d]pyrimidin-4(3H)-one]
< 10 | – | CC(=O)OC(C)(C)Cn1cnc2c(-c3cccnc3)nc(-c3ccc(C(F)(F)F)cc3)cc2c1=O [Example 37, 2-methyl-1-(4-oxo-8-(pyridin-3-yl)-6-(4-(trifluoromethyl)phenyl)pyrido[3,4-d]pyrimidin-3(4H)-yl)propan-2-yl acetate]
– | 100 to 1000 | Cn1cc(-c2cc3c(=O)n(C4CCCC(O)C4)cnc3c(-c3cnn(C)c3)n2)cn1 (stereo not shown) [Example 2, 3-(3-hydroxycyclohexyl)-6,8-bis(1-methyl-1H-pyrazol-4-yl)pyrido[3,4-d]pyrimidin-4(3H)-one]
< 10 | – | Cn1cc(-c2nc(-c3ccc(C(F)(F)F)cc3)cc3c(=O)n([C@@H]4CC[C@H](O)C4)cnc23)cn1 [Example 31, 3-((1R,3S)-3-hydroxycyclopentyl)-8-(1-methyl-1H-pyrazol-4-yl)-6-(4-(trifluoromethyl)phenyl)pyrido[3,4-d]pyrimidin-4(3H)-one]
< 10 | – | O=c1c2cc(-c3ccc(N4CCOCC4)cc3)nc(-c3cccnc3)c2ncn1C(CO)CO [Example 80, 3-(1,3-dihydroxypropan-2-yl)-6-(4-morpholinophenyl)-8-(pyridin-3-yl)pyrido[3,4-d]pyrimidin-4(3H)-one]
– | < 10 | CC(O)Cn1cnc2c(-c3cnn(C)c3)nc(-c3ccc(C(F)(F)F)cc3)cc2c1=O (stereo not shown) [Example 12, 3-(2-hydroxypropyl)-8-(1-methyl-1H-pyrazol-4-yl)-6-(4-(trifluoromethyl)phenyl)pyrido[3,4-d]pyrimidin-4(3H)-one]
> 1000 | – | Cn1cc(-c2nc(-c3ccc(Cl)cc3)cc3c(=O)n([C@H]4CCCC[C@H]4O)cnc23)cn1 [Example 20, 6-(4-chlorophenyl)-3-((1S,2R)-2-hydroxycyclohexyl)-8-(1-methyl-1H-pyrazol-4-yl)pyrido[3,4-d]pyrimidin-4(3H)-one]
< 10 | – | Cn1cc(-c2nc(-c3ccc(Cl)cc3)cc3c(=O)n(CC(O)C(F)(F)F)cnc23)cn1 (stereo not shown) [Example 23, 6-(4-chlorophenyl)-8-(1-methyl-1H-pyrazol-4-yl)-3-(3,3,3-trifluoro-2-hydroxypropyl)pyrido[3,4-d]pyrimidin-4(3H)-one]
– | > 1000 | CC(CO)n1cnc2c(-c3ccc(Cl)cc3)nc(-c3cccnc3)cc2c1=O (stereo not shown) [Example 5, 8-(4-chlorophenyl)-3-(1-hydroxypropan-2-yl)-6-(pyridin-3-yl)pyrido[3,4-d]pyrimidin-4(3H)-one]
< 10 | – | O=c1c2cc(-c3ccc(C(F)(F)F)cc3)nc(-c3cccnc3)c2ncn1C[C@@H](O)CO [Example 81, (R)-3-(2,3-dihydroxypropyl)-8-(pyridin-3-yl)-6-(4-(trifluoromethyl)phenyl)pyrido[3,4-d]pyrimidin-4(3H)-one]
